In the NIST ThermoML archive (doi:10.1016/j.fluid.2011.08.020):

Conditions: Liquid, Variable volume cell

CCCCCCCCCCCCCCCCCCCC [eicosane]
Conditions | mass density [kg/m3]
323.65 K, 7300 kPa | 771
323.65 K, 14900 kPa | 777
323.65 K, 21400 kPa | 784
323.65 K, 27400 kPa | 787
323.65 K, 34200 kPa | 789
422.85 K, 7400 kPa | 711
422.85 K, 14300 kPa | 719
422.85 K, 20600 kPa | 723
422.85 K, 27900 kPa | 730
422.85 K, 34600 kPa | 735
422.85 K, 54200 kPa | 748
422.85 K, 81600 kPa | 765
422.85 K, 109200 kPa | 781
422.85 K, 136100 kPa | 792
422.85 K, 169500 kPa | 806
422.85 K, 203100 kPa | 818
422.85 K, 235500 kPa | 829
422.85 K, 260000 kPa | 837
522.55 K, 16400 kPa | 661
522.55 K, 28300 kPa | 676
522.55 K, 41900 kPa | 691
522.55 K, 55500 kPa | 706
522.55 K, 69600 kPa | 719
522.55 K, 82500 kPa | 727
522.55 K, 109200 kPa | 744
522.55 K, 138200 kPa | 763
522.55 K, 173100 kPa | 777
522.55 K, 204700 kPa | 791
522.55 K, 239800 kPa | 805
522.55 K, 258000 kPa | 810

CCCCCCCCCCCCCCCC [hexadecane]
Conditions | mass density [kg/m3]
323.65 K, 14900 kPa | 758
323.65 K, 27900 kPa | 769
323.65 K, 41500 kPa | 779
323.65 K, 55500 kPa | 787
323.65 K, 69400 kPa | 792
323.65 K, 81300 kPa | 799
323.65 K, 109700 kPa | 807
422.85 K, 14100 kPa | 700
422.85 K, 27900 kPa | 713
422.85 K, 41200 kPa | 724
422.85 K, 55500 kPa | 734
422.85 K, 69800 kPa | 743
422.85 K, 82800 kPa | 750
422.85 K, 108800 kPa | 765
422.85 K, 136900 kPa | 778
422.85 K, 170700 kPa | 792
422.85 K, 204300 kPa | 804
422.85 K, 236500 kPa | 815
422.85 K, 262300 kPa | 823
522.55 K, 15100 kPa | 643
522.55 K, 27100 kPa | 660
522.55 K, 42000 kPa | 675
522.55 K, 55400 kPa | 687
522.55 K, 69100 kPa | 698
522.55 K, 82100 kPa | 707
522.55 K, 107900 kPa | 723
522.55 K, 135800 kPa | 738
522.55 K, 170100 kPa | 755
522.55 K, 203300 kPa | 769
522.55 K, 235800 kPa | 782
522.55 K, 255000 kPa | 788

CCCCCCCCCCCCCCCCCC [octadecane]
Conditions | mass density [kg/m3]
323.65 K, 7000 kPa | 764
323.65 K, 14400 kPa | 769
323.65 K, 28300 kPa | 778
323.65 K, 42200 kPa | 788
323.65 K, 55600 kPa | 797
323.65 K, 68900 kPa | 800
422.85 K, 7700 kPa | 702
422.85 K, 15100 kPa | 711
422.85 K, 29400 kPa | 724
422.85 K, 42500 kPa | 732
422.85 K, 56100 kPa | 741
422.85 K, 73200 kPa | 752
422.85 K, 84500 kPa | 761
422.85 K, 110000 kPa | 774
422.85 K, 138500 kPa | 787
422.85 K, 171700 kPa | 801
422.85 K, 206100 kPa | 813
422.85 K, 235500 kPa | 823
422.85 K, 255900 kPa | 829
522.55 K, 15300 kPa | 651
522.55 K, 29400 kPa | 668
522.55 K, 43200 kPa | 681
522.55 K, 56400 kPa | 692
522.55 K, 70800 kPa | 703
522.55 K, 84400 kPa | 712
522.55 K, 110000 kPa | 727
522.55 K, 137800 kPa | 742
522.55 K, 170400 kPa | 757
522.55 K, 205300 kPa | 771
522.55 K, 235700 kPa | 782
522.55 K, 257000 kPa | 790
